From DBAASP
Converted amounts (≈) assume the structure as drawn. “And” between values parts separate entries of the source, which are not always exact repeats. Equal entries are not always repeated. Each block holds one compound with its values, some of them ahead of it.

Legend:
Assay in all cases: ≥ marks a high value that may be exact or a test limit, other limits are often not marked, values filed in µg/mL are converted to µM
[1] = test system: Escherichia coli NBRC 14237
[2] = test system: Pseudomonas aeruginosa NBRC 12582
[3] = test system: Staphylococcus aureus NBRC 12732
[4] = test system: Micrococcus luteus NBRC 12708
[5] = test system: Staphylococcus aureus ATCC 25923
[6] = test system: Escherichia coli ATCC 25922
[7] = test system: Mycobacterium tuberculosis H37Rv
[8] = test system: Mycobacterium tuberculosis
[9] = test system: Escherichia coli IFO 12734
[10] = test system: Staphylococcus aureus IFO 12732
[11] = test system: Bacillus subtilis IFO 3134
[12] = test system: Pseudomonas aeruginosa IFO 12582
[13] = test system: Acinetobacter calcoaceticus Ac11
[14] = test system: Bacillus subtilis ATCC 6051
Escherichia coli D21 = test system: Escherichia coli D21
[15] = test system: Micrococcus luteus ATCC 9341
Bacillus megaterium Bm11 = test system: Bacillus megaterium Bm11
[16] = test system: Salmonella enterica subsp. enterica serovar Typhimurium LT2
[17] = test system: Pseudomonas aeruginosa ATCC 27853
Micrococcus luteus = test system: Micrococcus luteus
[18] = test system: Pseudomonas aeruginosa ATCC 15692
Saccharomyces cerevisiae = test system: Saccharomyces cerevisiae
Escherichia coli ML-35 = test system: Escherichia coli ML-35
[19] = test system: Serratia marcescens ATCC 8100
[20] = test system: Salmonella enterica subsp. enterica serovar Typhimurium ATCC 14028
Escherichia coli HB101 = test system: Escherichia coli HB101
[21] = test system: Corynebacterium glutamicum ATCC 13032
[22] = test system: Staphylococcus aureus ATCC 9144

SMILES: CC[C@H](C)[C@H](NC(=O)[C@H](CC(C)C)NC(=O)[C@H](CCCCN)NC(=O)[C@H](CC(C)C)NC(=O)[C@H](C)NC(=O)CNC(=O)[C@H](CCCCN)NC(=O)[C@H](C)NC(=O)[C@H](CC(C)C)NC(=O)[C@H](C)NC(=O)CNC(=O)[C@H](Cc1c[nH]c2ccccc12)NC(=O)[C@@H](N)Cc1ccccc1)C(=O)NCC(=O)N1CCC[C@H]1C(=O)NCC(=O)N[C@@H](CO)C(=O)N[C@@H](CC(C)C)C(=O)N[C@@H](Cc1ccccc1)C(=O)N[C@@H](CO)C(=O)N[C@@H](CO)C(=O)N[C@@H](Cc1ccccc1)C(=O)N[C@@H](CO)C(=O)N[C@@H](CCCCN)C(=O)N[C@@H](CCCCN)C(=O)N[C@@H](CC(=O)O)C(=O)O [FWGALAKGALKLIGPGSLFSSFSKKD]
MIC [5]: 12.5 µM and 25 µM | MIC [6]: 12.5 µM and 25 µM | MIC [7]: 29.4 µM (≈ 80.1 µg/mL) | MIC [8]: 17.6 µM (≈ 48.1 µg/mL)

SMILES: CC[C@H](C)[C@H](NC(=O)[C@H](C)NC(=O)[C@@H]1CCCN1C(=O)[C@@H](NC(=O)[C@@H](NC(=O)[C@H](Cc1cnc[nH]1)NC(=O)[C@H](C)NC(=O)[C@H](C)NC(=O)[C@@H](NC(=O)[C@H](CCCCN)NC(=O)[C@H](C)NC(=O)[C@H](CC(C)C)NC(=O)[C@@H](NC(=O)CNC(=O)[C@H](Cc1ccccc1)NC(=O)[C@H](CC(C)C)NC(=O)CN)C(C)C)C(C)C)C(C)C)C(C)C)C(=O)N[C@@H](C)C(=O)N[C@@H](CCC(=O)O)C(N)=O [GLFGVLAKVAAHVVPAIAE]
MIC [9]: ≥ 64 µM | MIC [10]: ≥ 64 µM | MIC [11]: ≥ 64 µM | MIC [12]: ≥ 64 µM

SMILES: CC[C@H](C)[C@H](NC(=O)[C@H](C)NC(=O)[C@@H]1CCCN1C(=O)[C@@H](NC(=O)[C@@H](NC(=O)[C@H](CCCCN)NC(=O)[C@H](C)NC(=O)[C@H](C)NC(=O)[C@@H](NC(=O)[C@H](CCCCN)NC(=O)[C@H](C)NC(=O)[C@H](CC(C)C)NC(=O)[C@@H](NC(=O)CNC(=O)[C@H](Cc1ccccc1)NC(=O)[C@H](CC(C)C)NC(=O)CN)C(C)C)C(C)C)C(C)C)C(C)C)C(=O)N[C@@H](C)C(=O)N[C@@H](CCCCN)C(=O)N[C@@H](Cc1cnc[nH]1)C(=O)N[C@@H](Cc1ccccc1)C(N)=O [GLFGVLAKVAAKVVPAIAKHF]
MIC [9]: 8 µM (≈ 17.1 µg/mL) | MIC [10]: 4 µM (≈ 8.54 µg/mL) | MIC [11]: 2 µM (≈ 4.27 µg/mL) | MIC [12]: 16 µM (≈ 34.2 µg/mL)

SMILES: CC[C@H](C)[C@H](N)C(=O)N[C@@H](CO)C(=O)N[C@@H](CO)C(=O)N1CCC[C@H]1C(=O)N[C@@H](CC(C)C)C(=O)N[C@@H](Cc1ccccc1)C(=O)N[C@@H](CCCCN)C(=O)N[C@H](C(=O)N[C@@H](CC(C)C)C(=O)N[C@@H](CC(C)C)C(=O)N[C@@H](CO)C(=O)N[C@@H](C)C(=O)N[C@H](C(=O)NCC(=O)N[C@@H](CO)C(=O)N[C@@H](C)C(=O)N[C@@H](CC(C)C)C(=O)N[C@@H](CO)C(=O)N[C@@H](CO)C(=O)N[C@@H](CO)C(=O)NCC(=O)NCC(=O)N[C@@H](CCC(N)=O)C(=O)N[C@@H](CCC(=O)O)C(=O)O)C(C)C)[C@@H](C)O [ISSPLFKTLLSAVGSALSSSGGQE]
MIC [13]: ≥ 100 µM | MIC [14]: ≥ 100 µM | MIC (Escherichia coli D21): ≥ 100 µM | MIC [15]: ≥ 100 µM | MIC (Bacillus megaterium Bm11): ≥ 100 µM | MIC [16]: ≥ 100 µM | MIC [17]: > 100 µM

SMILES: CC[C@H](C)[C@H](NC(=O)[C@H](CCCN=C(N)N)NC(=O)[C@@H](N)CCCN=C(N)N)C(=O)N[C@@H](CCCN=C(N)N)C(=O)N1CCC[C@H]1C(=O)N[C@@H](CCCN=C(N)N)C(=O)N1CCC[C@H]1C(=O)N1CCC[C@H]1C(=O)N[C@@H](CCCN=C(N)N)C(=O)N[C@@H](CC(C)C)C(=O)N1CCC[C@H]1C(=O)N[C@@H](CCCN=C(N)N)C(=O)N1CCC[C@H]1C(=O)O [RRIRPRPPRLPRP]
MIC [5]: > 128 µM | MIC (Escherichia coli ML-35): ≥ 128 µM | MIC [19]: ≥ 128 µM | MIC [6]: > 128 µM | MIC [20]: > 128 µM | MIC (Escherichia coli HB101): ≥ 90.5 µM

Results, then the compound that gave them:

MIC [1]: 12.5 µM (≈ 18.7 µg/mL) | MIC [2]: ≥ 50 µM | MIC [3]: 12.5 µM (≈ 18.7 µg/mL) | MIC [4]: ≥ 50 µM
SMILES: CC[C@H](C)[C@H](NC(=O)CNC(=O)[C@H](C)NC(=O)[C@H](CC(C)C)NC(=O)[C@H](CC(C)C)NC(=O)[C@H](CCCN=C(N)N)NC(=O)[C@@H]1CCCN1C(=O)[C@H](C)NC(=O)[C@H](CC(C)C)NC(=O)[C@H](CCCCN)NC(=O)[C@H](CC(C)C)NC(=O)[C@H](CC(C)C)NC(=O)[C@H](C)N)C(=O)N[C@@H](Cc1ccccc1)C(N)=O [ALLKLAPRLLAGIF]

MIC [1]: 12.5 µM (≈ 23 µg/mL) | MIC [5]: 32 µM (≈ 58.9 µg/mL) | MIC [6]: 128 µM (≈ 235 µg/mL) | MIC [2]: ≥ 50 µM | MIC [3]: 12.5 µM (≈ 23 µg/mL) | MIC (Micrococcus luteus): 2 µM (≈ 3.68 µg/mL) | MIC [4]: ≥ 50 µM | MIC [18]: ≥ 256 µM | MIC (Saccharomyces cerevisiae): ≥ 64 µM
SMILES: CC(C)C[C@H](NC(=O)[C@H](CC(C)C)NC(=O)[C@H](CC(N)=O)NC(=O)[C@H](CO)NC(=O)CNC(=O)[C@@H](NC(=O)[C@H](CCCCN)NC(=O)[C@H](CC(C)C)NC(=O)CNC(=O)[C@@H](NC(=O)[C@H](CCCCN)NC(=O)[C@H](CC(C)C)NC(=O)[C@H](CC(C)C)NC(=O)[C@H](CO)NC(=O)CNC(=O)[C@H](CC(C)C)NC(=O)[C@H](CC(C)C)NC(=O)[C@@H](N)CC(N)=O)[C@@H](C)O)C(C)C)C(N)=O [NLLGSLLKTGLKVGSNLL]

MIC [5]: > 128 µM | MIC (Escherichia coli ML-35): ≥ 128 µM | MIC [19]: ≥ 128 µM | MIC [6]: > 128 µM | MIC [20]: > 128 µM
SMILES: CC[C@H](C)[C@H](NC(=O)[C@@H]1CCCN1C(=O)[C@H](CCCN=C(N)N)NC(=O)[C@@H]1CCCN1C(=O)CNC(=O)[C@@H]1CCCN1C(=O)[C@H](CCCN=C(N)N)NC(=O)[C@@H]1CCCN1C(=O)[C@H](Cc1ccccc1)NC(=O)[C@@H]1CCCN1C(=O)[C@H](CC(C)C)NC(=O)[C@@H]1CCCN1C(=O)[C@H](CCCN=C(N)N)NC(=O)[C@@H]1CCCN1C(=O)[C@@H](NC(=O)[C@@H]1CCCN1C(=O)[C@H](CCCN=C(N)N)NC(=O)[C@@H]1CCCN1C(=O)CNC(=O)[C@@H]1CCCN1C(=O)[C@H](CCCN=C(N)N)NC(=O)[C@@H]1CCCN1C(=O)[C@H](Cc1ccccc1)NC(=O)[C@@H]1CCCN1C(=O)[C@H](CC(C)C)NC(=O)[C@@H]1CCCN1C(=O)[C@H](CCCN=C(N)N)NC(=O)[C@@H]1CCCN1)[C@@H](C)CC)C(=O)O [PRPLPFPRPGPRPIPRPLPFPRPGPRPI]

MIC [6]: 1.13 µM (≈ 3.65 µg/mL) | MIC [21]: 0.4 µM (≈ 1.29 µg/mL) | MIC (Escherichia coli HB101): 1.13 µM (≈ 3.65 µg/mL) | MIC [17]: 4.42 µM (≈ 14.3 µg/mL) | MIC [22]: ≥ 50 µM
SMILES: CC[C@H](C)[C@H](NC(=O)[C@H](CCCN=C(N)N)NC(=O)[C@@H]1CCCN1C(=O)[C@@H]1CCCN1C(=O)[C@H](CC(C)C)NC(=O)[C@H](CCCN=C(N)N)NC(=O)[C@@H]1CCCN1C(=O)[C@@H]1CCCN1C(=O)[C@H](Cc1ccccc1)NC(=O)[C@H](Cc1ccccc1)NC(=O)[C@@H]1CCCN1C(=O)[C@@H]1CCCN1C(=O)[C@@H]1CCCN1C(=O)[C@H](CCCN=C(N)N)NC(=O)[C@@H]1CCCN1C(=O)[C@H](CCCN=C(N)N)NC(=O)[C@@H]1CCCN1C(=O)[C@H](CC(C)C)NC(=O)[C@H](Cc1ccc(O)cc1)NC(=O)[C@@H]1CCCN1C(=O)[C@@H]1CCCN1C(=O)[C@H](CCCN=C(N)N)NC(=O)[C@@H]1CCCN1C(=O)[C@H](CCCN=C(N)N)NC(=O)[C@H](CCCN=C(N)N)NC(=O)[C@@H](N)CCCN=C(N)N)C(=O)O [RRRPRPPYLPRPRPPPFFPPRLPPRI]
